According to US20250162973A1, “METHODS OF SYNTHESIS AND USES OF AGRIMOL COMPOUNDS” (Versitech Limited, priority 2022, published 2025):

Legend:
MDA-MB-231 cell line = test: MTT cell viability assay; format: cell-based, human; settings: Homo sapiens, MDA-MB-231; MTT method, 48 h
Protocol: SUNE1 (nasopharyngeal carcinoma), AGS (gastric adenocarcinoma), HeLa (cervix adenocarcinoma), HepG2 (hepatocellular carcinoma), U-87 MG (human glioblastoma cell), U2OS (osteosarcoma), MCF-7 (breast adenocarcinoma), MDA-MB-231 (breast adenocarcinoma), HCT116 (colorectal carcinoma), SW480 (colorectal adenocarcinoma), NCI-H460 (large cell lung carcinoma), NCI-H1650 (adenocarcinoma lung carcinoma), HCC827 (adenocarcinoma lung carcinoma), A549 (lung carcinoma), and CCD-19Lu (human lung fibroblast normal cell) were all obtained from American Type Culture Collection (ATCC, Manassas, VA, USA). Minimum Essential Media (MEM, Gibco®, ThermoFisher Scientific), Dulbecco's Modified Eagle Medium (DMEM, Gibco®, ThermoFisher Scientific), and RPMI-1640 Medium (Gibco®, ThermoFisher Scientific) supplemented with 10% Fetal Bovine Serum (Gibco®, ThermoFisher Scientific), and 100 U/mL penicillin-streptomycin (Gibco™, ThermoFisher Scientific) were used for cell culture. Cells were placed into an incubator with 5% CO2 that temperature was set at 37° C. For subculturing cells, 0.05% Trypsin-EDTA (Gibco®) was used for detaching and a subcultivation ratio of 1:5 was used.
The cell viability assay was performed by a typical MTT assay. Briefly, 5*10^3 cells were seeded in the 96-well flat bottom plate and allowed to attach overnight. After drug treatment with a serial dilution from 100 μM for 48 h, 10 μL of MTT solution (5 mg/ml prepared in PBS, filtered) was added into each well and incubate for 4 h at 37° C. The formed formazan was then dissolved with SDS solution (10% SDS in 10 mM HCl) and followed the determination of absorbance at 590 nm by a microplate reader. The change in cell viability was then calculated for each drug concentration, then normalized to control. Dose response curves from each assay were fit to a Boltzmann sigmoidal function (GraphPad Prism8, version8.0.0). The cytotoxicity of AGB and its derivatives was determined by the calculation of IC50 value (half maximal inhibitory concentration) from fitted curves, which was the concentration of drug induced 50% cell viability.

NCI-H460 xenograft = test: Human tumor xenograft model; format: in vivo, BALB/c nude mice; settings: AGB 3 mg/kg, tail intravenous injection
Protocol: In vivo anticancer efficacy of AGB was evaluated using the human tumor xenograft model, in which human cancer cells were inoculated into immune-deficiency mice. Briefly, twelve six-week-old (16-18 g) BALB/c nude mice were randomly divided into two groups and both received subcutaneous injection of NCI-H460 cells (2 million cells in 0.1 mL PBS) at its right flank of mice and tumor became palpable after three days of injection. Mice were received intravenous (i.v.) injections of AGB or vehicle control (10% DMSO and 0.05% Tween 80 in normal saline) every two days in two weeks. The length and width of tumor were measured by Vernier caliper and the body weight was monitored every two or three days. At the end of experiment, mice were sacrificed and decapitated. The liver, kidney, and tumor were collected and fixed in 4% formaldehyde for further haematoxylin and eosin (H&E) staining. All animal experiments in this project received human care and study protocols complied with the guidelines of the Laboratory Animal Services Centre of the University of Hong Kong. Tumor sizes and body weight were recorded before the drug injection every time and tumor volume (V) was calculated by the formula V=LW^2/2, where L is tumor length and W is tumor width. […]
The in vivo antitumor potential of AGB using the xenograft mouse model was assessed. […]

[1] = Serum biochemical examination in MTD test; format: in vivo; settings: 12.8 mg/kg
Protocol: The MTD test in this study was done in collaboration with Tianjin Institute of Pharmaceutical Research (TIPR). […] A total of 80 mice were randomly assigned into four groups (10 male and 10 female mice in each group) in this study. Four groups included 16.0 mg/kg of AGB group, 12.8 mg/kg of AGB group, vehicle control group (10% DMSO+0.8% Tween-80 in normal saline), and the blank control group (normal saline).
Then, the body weights of surviving animals were measured on the 1st, 3rd, 7th and 14th days, respectively. At the end of experiment, the hematology, blood biochemistry, anatomical examination, and histopathology examination were performed in both vehicle control group and the MTD group (12.8 mg/kg). The data were presented as the mean±standard deviation.

NCI-H460 cells = test: Apoptosis assays (Hoechst, annexin V/PI, Western blotting); format: cell-based, human
Protocol: FIG. 4 is a graph showing AGB induced apoptosis in NCI-H460 cells by the Annexin-V/PI double-staining assay. After treating with AGB for 24 h and 36 h, respectively, cells were stained with annexin V-FITC and propidium iodide and analyzed by flow cytometry.
The mitochondrial fission and mitochondrial membrane potential depolarization are involved in the induction of cell apoptosis and also play a central role to the apoptotic pathway. Therefore, several apoptosis assays were performed. […] Induction of apoptosis by AGB in NCI-H460 cells was further supported through monitoring PARP, caspase-9, and caspase-3 cleavage as well as through changes in the levels of a panel of proteins commonly involved in apoptotic signaling via Western blotting experiments (data not shown).

HSP60 = HSP60 (Homo sapiens, UniProt P10809); test: CETSA / ITDRFCETSA immunoblot; format: binding; design: dose dependent recovery of soluble HSP60 in cells subjected to heating; endogenous in cells; host or cells: NCI-H460; settings: CETSA melt curve, NCI-H460 cells
Protocol: Immunoblot experiments were carried out for validating of the three identified potential targets. […] In the isothermal dose-response fingerprint (ITDRFCETSA) experiment, treatment of cells with increasing concentrations of AGB led to dose dependent recovery of soluble HSP60 in cells subjected to heating at protein denaturation temperature at 60° C.

Sequence of HSP60 (P10809 27-573): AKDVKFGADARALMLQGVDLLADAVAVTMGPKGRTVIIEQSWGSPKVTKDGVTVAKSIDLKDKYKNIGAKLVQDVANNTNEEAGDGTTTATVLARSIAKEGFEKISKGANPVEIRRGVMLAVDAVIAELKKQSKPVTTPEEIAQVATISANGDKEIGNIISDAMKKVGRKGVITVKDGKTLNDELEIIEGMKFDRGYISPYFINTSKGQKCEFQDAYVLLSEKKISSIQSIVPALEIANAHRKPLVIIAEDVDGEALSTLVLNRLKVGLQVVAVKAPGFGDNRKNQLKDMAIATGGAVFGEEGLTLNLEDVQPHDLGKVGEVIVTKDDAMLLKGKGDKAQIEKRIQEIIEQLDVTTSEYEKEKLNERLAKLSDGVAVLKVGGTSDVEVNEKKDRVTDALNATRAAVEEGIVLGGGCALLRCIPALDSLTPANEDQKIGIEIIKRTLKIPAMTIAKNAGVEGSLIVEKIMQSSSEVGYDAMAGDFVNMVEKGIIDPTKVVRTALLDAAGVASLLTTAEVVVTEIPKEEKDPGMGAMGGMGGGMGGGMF

Q: What does the source list for `CCCC(=O)c1c(O)c(Cc2c(O)c(Cc3c(O)c(C)c(OC)c(C(=O)CCC)c3O)c(O)c(C(=O)[C@@H](C)CC)c2O)c(O)c(C)c1OC` [AGB, Agrimol B]?
A: IC50 (MDA-MB-231 cell line): 2.16 µM; tumor growth inhibition rate (NCI-H460 xenograft): 57%; serum biochemical abnormalities vs vehicle control ([1]; 14 days after administration): no obvious abnormalities; ALB ([1]; day 14): 17.73 ± 5.07 g/L; ALP ([1]; day 14): 153.67 ± 37.63 U/L; ALT ([1]; day 14): 26.09 ± 2.23 U/L; AST ([1]; day 14): 85.74 ± 15.96 U/L; BUN ([1]; day 14): 4.58 ± 2.24 mmol/L; CK ([1]; day 14): 953.09 ± 480.50 U/L; CREA ([1]; day 14): 34.11 ± 3.61 µmol/L; GGT ([1]; day 14): 0.07 ± 0.08 U/L; GLU ([1]; day 14): 9.10 ± 3.07 mmol/L; LDH ([1]; day 14): 403.54 ± 92.68 U/L; T.BIL ([1]; day 14): 1.75 ± 0.45 µmol/L; T.CHO ([1]; day 14): 3.68 ± 1.60 mmol/L; TG ([1]; day 14): 1.41 ± 0.59 mmol/L; TP ([1]; day 14): 45.93 ± 13.71 g/L; Hoechst staining (NCI-H460 cells): chromatin condensation and fragmentation; release of mitochondrial factors to cytosol (NCI-H460 cells): release of cytochrome c and apoptosis inducing factor AIF; annexin V and PI flow cytometry (NCI-H460 cells; 24 h and 36 h AGB treatment): increase of the early and late apoptotic cell populations; increase in the protein melting temperature (Tm) vs DMSO control (HSP60): 3.2 °C
